The values below come from US20040185460A1, “Novel mixed lineage kinase (7) (mlk7) polypeptide polynucleotides encoding the same and methods of use thereof” (priority 2001, published 2004).

The test system of the experiment is baculoviral human GST-MLK7KD and GST-MLK7KD/LZ. The conditions noted are these: data not shown; shows requirement for metal ions (Mg+2).

The structures appear in SMILES notation.

As to `O=C(O)CN(CCN(CC(=O)O)CC(=O)O)CC(=O)O` [EDTA], the “activities of GST-MLK7KD and GST-MLK7KD/LZ” value was “inhibited”.
